According to patent US11168057B2, “Polymorphs and co-crystals of roxadustat” (DR. REDDY'S LABORATORIES LIMITED, priority 2017, dated 2021):

Experiment: Storage stability in three ICH conditions for three months (water content, purity, PXRD)
Format: physicochemical
Conditions: for storage stability: all three ICH conditions for three months
Excerpt: The data presented below substantiate that the Form RLP has a high storage stability. Pack-1 (Normal LDPE Bag with 1 g Silica Gel, Packed in a HDPE Container):
Pack-2 (Black Colored LDPE Bag with 1 g Silica Gel, Packed in a HDPE Container):
The data presented below substantiate that the Form RNM has a high storage stability.
Pack-1 (LDPE Bag with 1 g Molecular Sieve, Packed in a HDPE Container):
Pack-2 (LDPE Bag with 1 g Silica Gel, Packed in a HDPE Container): […]

[1] = Pack-1 (Normal LDPE Bag with 1 g Silica Gel, HDPE Container), 2-8° C., 1st Month
[2] = Pack-1 (Normal LDPE Bag with 1 g Silica Gel, HDPE Container), 2-8° C., 3rd Month
[3] = Pack-1 (Normal LDPE Bag with 1 g Silica Gel, HDPE Container), 2-8° C., Initial
[4] = Pack-1 (Normal LDPE Bag with 1 g Silica Gel, HDPE Container), 25 ± 2° C., 60 ± 5% RH, 1st Month
[5] = Pack-1 (Normal LDPE Bag with 1 g Silica Gel, HDPE Container), 25 ± 2° C., 60 ± 5% RH, 3rd Month
[6] = Pack-1 (Normal LDPE Bag with 1 g Silica Gel, HDPE Container), 25 ± 2° C., 60 ± 5% RH, Initial
[7] = Pack-1 (Normal LDPE Bag with 1 g Silica Gel, HDPE Container), 40 ± 2° C., 75 ± 5% RH, 1st Month
[8] = Pack-1 (Normal LDPE Bag with 1 g Silica Gel, HDPE Container), 40 ± 2° C., 75 ± 5% RH, 3rd Month
[9] = Pack-1 (Normal LDPE Bag with 1 g Silica Gel, HDPE Container), 40 ± 2° C., 75 ± 5% RH, Initial
[10] = Pack-2 (Black Colored LDPE Bag with 1 g Silica Gel, HDPE Container), 2-8° C., 1st Month
[11] = Pack-2 (Black Colored LDPE Bag with 1 g Silica Gel, HDPE Container), 2-8° C., 3rd Month
[12] = Pack-2 (Black Colored LDPE Bag with 1 g Silica Gel, HDPE Container), 2-8° C., Initial
[13] = Pack-2 (Black Colored LDPE Bag with 1 g Silica Gel, HDPE Container), 25 ± 2° C., 60 ± 5% RH, 1st Month
[14] = Pack-2 (Black Colored LDPE Bag with 1 g Silica Gel, HDPE Container), 25 ± 2° C., 60 ± 5% RH, 3rd Month
[15] = Pack-2 (Black Colored LDPE Bag with 1 g Silica Gel, HDPE Container), 25 ± 2° C., 60 ± 5% RH, Initial
[16] = Pack-2 (Black Colored LDPE Bag with 1 g Silica Gel, HDPE Container), 40 ± 2° C., 75 ± 5% RH, 1st Month
[17] = Pack-2 (Black Colored LDPE Bag with 1 g Silica Gel, HDPE Container), 40 ± 2° C., 75 ± 5% RH, 3rd Month
[18] = Pack-2 (Black Colored LDPE Bag with 1 g Silica Gel, HDPE Container), 40 ± 2° C., 75 ± 5% RH, Initial
[19] = Pack-1 (LDPE Bag with 1 g Molecular Sieve, HDPE Container), 2-8° C., 1st Month
[20] = Pack-1 (LDPE Bag with 1 g Molecular Sieve, HDPE Container), 2-8° C., 3rd Month
[21] = Pack-1 (LDPE Bag with 1 g Molecular Sieve, HDPE Container), 2-8° C., Initial
[22] = Pack-1 (LDPE Bag with 1 g Molecular Sieve, HDPE Container), 25 ± 2° C., 60 ± 5% RH, 1st Month
[23] = Pack-1 (LDPE Bag with 1 g Molecular Sieve, HDPE Container), 25 ± 2° C., 60 ± 5% RH, 3rd Month
[24] = Pack-1 (LDPE Bag with 1 g Molecular Sieve, HDPE Container), 25 ± 2° C., 60 ± 5% RH, Initial
[25] = Pack-1 (LDPE Bag with 1 g Molecular Sieve, HDPE Container), 40 ± 2° C., 75 ± 5% RH, 1st Month
[26] = Pack-1 (LDPE Bag with 1 g Molecular Sieve, HDPE Container), 40 ± 2° C., 75 ± 5% RH, 3rd Month
[27] = Pack-1 (LDPE Bag with 1 g Molecular Sieve, HDPE Container), 40 ± 2° C., 75 ± 5% RH, Initial
[28] = Pack-2 (LDPE Bag with 1 g Silica Gel, HDPE Container), 2-8° C., 1st Month
[29] = Pack-2 (LDPE Bag with 1 g Silica Gel, HDPE Container), 2-8° C., 3rd Month
[30] = Pack-2 (LDPE Bag with 1 g Silica Gel, HDPE Container), 2-8° C., Initial
[31] = Pack-2 (LDPE Bag with 1 g Silica Gel, HDPE Container), 25 ± 2° C., 60 ± 5% RH, 1st Month
[32] = Pack-2 (LDPE Bag with 1 g Silica Gel, HDPE Container), 25 ± 2° C., 60 ± 5% RH, 3rd Month
[33] = Pack-2 (LDPE Bag with 1 g Silica Gel, HDPE Container), 25 ± 2° C., 60 ± 5% RH, Initial
[34] = Pack-2 (LDPE Bag with 1 g Silica Gel, HDPE Container), 40 ± 2° C., 75 ± 5% RH, 1st Month
[35] = Pack-2 (LDPE Bag with 1 g Silica Gel, HDPE Container), 40 ± 2° C., 75 ± 5% RH, 3rd Month
[36] = Pack-2 (LDPE Bag with 1 g Silica Gel, HDPE Container), 40 ± 2° C., 75 ± 5% RH, Initial

## Cc1nc(C(=O)NCC(=O)O)c(O)c2ccc(Oc3ccccc3)cc12.O=C(O)[C@@H]1CCCN1 [Form RLP]
[1]
  PXRD: No change
  Purity: 99.84%
  Water content: 0.11 % w/w
[2]
  PXRD: No change
  Purity: 99.85%
  Water content: 0.14 % w/w
[3]
  PXRD: Form RLP
  Purity: 99.84%
  Water content: 0.09 % w/w
[4]
  PXRD: No change
  Purity: 99.84%
  Water content: 0.14 % w/w
[5]
  PXRD: No change
  Purity: 99.86%
  Water content: 0.12 % w/w
[6]
  PXRD: Form RLP
  Purity: 99.84%
  Water content: 0.09 % w/w
[7]
  PXRD: No change
  Purity: 99.84%
  Water content: 0.16 % w/w
[8]
  PXRD: No change
  Purity: 99.83%
  Water content: 0.21 % w/w
[9]
  PXRD: Form RLP
  Purity: 99.84%
  Water content: 0.09 % w/w
[10]
  PXRD: No change
  Purity: 99.82%
  Water content: 0.14 % w/w
[11]
  PXRD: No change
  Purity: 99.85%
  Water content: 0.16 % w/w
[12]
  PXRD: Form RLP
  Purity: 99.84%
  Water content: 0.09 % w/w
[13]
  PXRD: No change
  Purity: 99.84%
  Water content: 0.11 % w/w
[14]
  PXRD: No change
  Purity: 99.82%
  Water content: 0.13 % w/w
[15]
  PXRD: Form RLP
  Purity: 99.84%
  Water content: 0.09 % w/w
[16]
  PXRD: No change
  Purity: 99.83%
  Water content: 0.14 % w/w
[17]
  PXRD: No change
  Purity: 99.85%
  Water content: 0.11 % w/w
[18]
  PXRD: Form RLP
  Purity: 99.84%
  Water content: 0.09 % w/w
  storage stability: stable

## Cc1nc(C(=O)NCC(=O)O)c(O)c2ccc(Oc3ccccc3)cc12.NC(=O)c1cccnc1 [Form RNM]
[19]
  PXRD: No change
  Purity: 99.66%
  Water content: 0.08 % w/w
[20]
  PXRD: No change
  Purity: 99.66%
  Water content: 0.08 % w/w
[21]
  PXRD: Form RNM
  Purity: 99.57%
  Water content: 0.12 % w/w
[22]
  PXRD: No change
  Purity: 99.63%
  Water content: 0.07 % w/w
[23]
  PXRD: No change
  Purity: 99.64%
  Water content: 0.08 % w/w
[24]
  PXRD: Form RNM
  Purity: 99.57%
  Water content: 0.12 % w/w
[25]
  PXRD: No change
  Purity: 99.65%
  Water content: 0.10 % w/w
[26]
  PXRD: No change
  Purity: 99.62%
  Water content: 0.07 % w/w
[27]
  PXRD: Form RNM
  Purity: 99.57%
  Water content: 0.12 % w/w
[28]
  PXRD: No change
  Purity: 99.62%
  Water content: 0.10 % w/w
[29]
  PXRD: No change
  Purity: 99.65%
  Water content: 0.08 % w/w
[30]
  PXRD: Form RNM
  Purity: 99.57%
  Water content: 0.12 % w/w
[31]
  PXRD: No change
  Purity: 99.65%
  Water content: 0.07 % w/w
[32]
  PXRD: No change
  Purity: 99.64%
  Water content: 0.11 % w/w
[33]
  PXRD: Form RNM
  Purity: 99.57%
  Water content: 0.12 % w/w
[34]
  PXRD: No change
  Purity: 99.61%
  Water content: 0.12 % w/w
[35]
  PXRD: No change
  Purity: 99.62%
  Water content: 0.07 % w/w
[36]
  PXRD: Form RNM
  Purity: 99.57%
  Water content: 0.12 % w/w
  storage stability: stable
